Experimental findings from ChEMBL document CHEMBL1201862, “PubChem BioAssay data set” (2004) are described below.

The term IC50 denotes the concentration that gives 50% inhibition. Usually EC50 stands for the midpoint of the concentration-response curve. As usually defined, the AC50 is the midpoint of the concentration-response curve, whichever way the signal moves.

Molecules are shown by their SMILES. Activity calls are given as the source filed them.

Data set [1] concerns the target Type-1 angiotensin II receptor (Homo sapiens, UniProt P30556). Kind of data set: antagonism of angiotensin II type 1 receptor – cell-based, uHTS hits, selectivity assay for APJ receptor antagonist project, dose response (AID 463214).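 Further: antagonist potency against angiotensin II stimulated AT1 response.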 Format: functional.
A further data set deals with Beta-galactosidase (Escherichia coli, UniProt Q8VNN2). Kind of data set: PubChem AID 485352. Format: functional.
Sequence of Beta-galactosidase (Q8VNN2 whole entry): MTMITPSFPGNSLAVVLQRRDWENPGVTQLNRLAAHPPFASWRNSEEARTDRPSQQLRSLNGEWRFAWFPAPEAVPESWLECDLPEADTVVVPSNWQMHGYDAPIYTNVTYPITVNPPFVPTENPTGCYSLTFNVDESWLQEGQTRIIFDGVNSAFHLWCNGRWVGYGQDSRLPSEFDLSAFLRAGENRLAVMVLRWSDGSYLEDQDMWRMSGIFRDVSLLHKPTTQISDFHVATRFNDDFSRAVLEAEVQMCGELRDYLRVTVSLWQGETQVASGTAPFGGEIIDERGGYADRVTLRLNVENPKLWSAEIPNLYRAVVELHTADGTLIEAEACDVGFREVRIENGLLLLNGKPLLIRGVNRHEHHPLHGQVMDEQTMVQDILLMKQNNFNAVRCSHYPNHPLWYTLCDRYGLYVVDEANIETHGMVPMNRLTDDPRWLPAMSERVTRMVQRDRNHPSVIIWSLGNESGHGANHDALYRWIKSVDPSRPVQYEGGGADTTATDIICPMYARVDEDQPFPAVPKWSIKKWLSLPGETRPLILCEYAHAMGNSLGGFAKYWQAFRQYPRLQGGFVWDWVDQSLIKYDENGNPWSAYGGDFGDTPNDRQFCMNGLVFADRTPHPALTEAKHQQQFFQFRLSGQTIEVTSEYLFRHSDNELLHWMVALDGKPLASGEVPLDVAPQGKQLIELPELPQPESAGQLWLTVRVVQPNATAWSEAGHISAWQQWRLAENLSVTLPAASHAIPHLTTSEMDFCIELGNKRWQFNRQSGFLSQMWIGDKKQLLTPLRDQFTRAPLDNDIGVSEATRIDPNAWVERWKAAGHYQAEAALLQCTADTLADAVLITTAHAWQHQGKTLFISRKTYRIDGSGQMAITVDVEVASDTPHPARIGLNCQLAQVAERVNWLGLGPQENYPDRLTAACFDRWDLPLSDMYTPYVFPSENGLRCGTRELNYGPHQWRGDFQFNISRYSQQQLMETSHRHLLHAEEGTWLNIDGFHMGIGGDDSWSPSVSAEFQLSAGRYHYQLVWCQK
For a further data set, the system named is H4. Kind of data set: Luminescence Cell-Based Dose Response HTS to Identify Activators of 5'UTR Stem-Loop Driven Prion Protein mRNA Translation in H4 Neuroglioblastoma Cells. [Related pubchem assays: 1829 (Project Summary), 1814 (Primary HTS)]. Format: functional. Conditions: Homo sapiens.
Data set [2] can be described thus: cells. Format: functional, cell-based.
Data set [3] in a line: Luminescence Cell-Based Dose Response HTS to Identify Activators of Luciferase Translation or Activity in H4 […] Cells. [Related pubchem assays: 1829 (Project Summary), 1814 (Primary HTS)]. Format: functional.
Data set [4] can be described thus: Luminescence Cell-Based Dose Confirmation HTS to Identify Activators of 5'UTR Stem-Loop Driven Alpha-Synuclein mRNA Translation in H4 Neuroglioblastoma Cells. [Related pubchem assays: 1829 (Project Summary), 1814 (Primary HTS)]. Format: functional.
Data set [5] in a line: viability loss of HMLE_sh_eGFP cells – cell-based, luminescence, counter-screen for HMLE_sh_ECad selective toxicity project, dose response (AID 463074).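 Further: HMLE human mammary epithelial cells expressing control shRNA against eGFP.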 Format: functional, Homo sapiens.
Data set [6] in a line: Luminescence Cell-Based Dose Retest to Confirm Inhibitors of Cancer Stem Cells. [Related pubchem assays (depositor defined):AID2717, AID2721]. Conditions: Homo sapiens. Format: functional.
A short description of data set [7]: cells. Format: functional, cell-based. The source holds these as a separate data set.
The next data set deals with Cytochrome P450 2D6 (Homo sapiens, UniProt P10635).
Sequence of Cytochrome P450 2D6 (P10635 whole entry): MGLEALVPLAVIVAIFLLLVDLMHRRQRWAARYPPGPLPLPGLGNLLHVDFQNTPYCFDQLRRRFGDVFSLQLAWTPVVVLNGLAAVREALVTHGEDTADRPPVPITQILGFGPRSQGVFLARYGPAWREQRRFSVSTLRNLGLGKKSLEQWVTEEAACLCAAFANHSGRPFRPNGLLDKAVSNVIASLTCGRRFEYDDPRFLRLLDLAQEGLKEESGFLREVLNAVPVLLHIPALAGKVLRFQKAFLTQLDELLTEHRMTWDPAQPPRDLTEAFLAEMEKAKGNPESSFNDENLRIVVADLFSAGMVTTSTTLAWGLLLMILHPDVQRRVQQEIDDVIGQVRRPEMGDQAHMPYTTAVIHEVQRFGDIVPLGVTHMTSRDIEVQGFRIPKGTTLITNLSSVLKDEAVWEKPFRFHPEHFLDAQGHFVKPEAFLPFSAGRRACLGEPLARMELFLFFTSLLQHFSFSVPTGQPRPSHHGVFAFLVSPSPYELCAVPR
For data set [8], the system named is HEK293. Kind of data set: HEK293T cell viability loss, resazurin readout – resazurin fluorescence, cytotoxicity control for NF-kB activator project, SAR follow-up (AID 493251). Format: functional, cell-based. The note with it: Homo sapiens. (In general: Resazurin is reduced to fluorescent resorufin, in cell work by metabolically active cells.)
Data set [9] concerns HEK293. Briefly: SAR Analysis of small molecule inhibitors of B-cell specific antigen receptor-induced NF-kB activation in a HEK-293T cell line using a luminescence assay - Set 2. [Related pubchem assays (depositor defined):AID435022, AID435025, AID489021]. The note with it: Homo sapiens. Format: functional, cell-based.
In the next data set the test system is Jurkat. Kind of data set: SAR Analysis of small molecule inhibitors of […] specific antigen receptor-induced NF-kB activation in a Jurkat cell line using a luminescence assay - Set 3. [Related pubchem assays (depositor defined):AID435022, AID435025, AID465]. Format: functional, cell-based. Conditions: Homo sapiens.

Sequence of Type-1 angiotensin II receptor (P30556 whole entry): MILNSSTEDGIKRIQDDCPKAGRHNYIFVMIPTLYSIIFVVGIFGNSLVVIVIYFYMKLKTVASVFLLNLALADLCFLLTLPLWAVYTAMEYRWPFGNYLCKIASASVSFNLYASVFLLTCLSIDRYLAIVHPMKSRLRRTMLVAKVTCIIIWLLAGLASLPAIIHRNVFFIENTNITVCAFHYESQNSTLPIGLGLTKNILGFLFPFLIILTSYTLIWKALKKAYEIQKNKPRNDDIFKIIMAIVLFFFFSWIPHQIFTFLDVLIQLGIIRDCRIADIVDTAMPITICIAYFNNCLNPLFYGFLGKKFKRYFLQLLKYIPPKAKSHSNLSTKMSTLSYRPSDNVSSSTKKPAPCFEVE

With `O=C(CCC(=O)OCC(=O)c1ccc(Cl)cc1Cl)Nc1cccc2cccnc12`, the IC50 in [1] was > 40 µM (not active). Moreover, on Beta-galactosidase, the EC50 is > 40 µM (inactive).

Take `CC(C)c1ccc(NC(=O)CCc2ccccc2)cc1`: the EC50 was > 120 µM (inconclusive) in the data set with H4; > 350 µM (not active) in the data set “cells [2]”; 52.1 µM (active) in [3]; 7.33 µM (active) in [4]; > 350 µM (not active) in “cells [7]”. Moreover, the AC50 in data set [5] was 40.5 µM (active); in [6], 6.63 µM (active).

With `CC1Cc2ccccc2N1C(=O)CN1C(=O)COc2ccccc21` (stereo not drawn), on Cytochrome P450 2D6, the AC50 entry is given as “inconclusive”.

`CCOc1ccc(-c2nc(CSCC(=O)NCCN3CCCC3)c(C)o2)cc1`: the IC50 in the data set on HEK293 [8] was > 80 µM (inactive); with HEK293 [9], 28.4 µM (inactive); with Jurkat, 10.4 µM (active).
